This is an account of results in patent publication US8158621B2, “Methods of treating or preventing autoimmune diseases with 2,4-pyrimidinediamine compounds” (Rigel Pharmaceuticals, Inc., priority 2002, dated 2012).

The term pIC50 denotes the IC50 on a negative log10 scale, so that one unit is a factor of ten. The low end stands for a large IC50, the high end for a small IC50.

pIC50: −log10 of the molar value. A value given as a limit tells only on which side of the number the result lay.

In one assay the test system is Human Jurkat T-cells (clone N). In words: Jurkat T-cell activation (anti-TCR, CD69 upregulation). The format is cell-based.
Conditions: not given
The method, boiled down:
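Readout is CD69 upregulation by flow cytometry (anti-CD69-APC, 20 min at 4 °C) after 20 h anti-TCR (C305, 500 ng/ml) stimulation at 37 °C.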
`COC(=O)COc1ccc(Nc2ncc(F)c(Nc3ccc4c(cnn4C)c3)n2)cc1` [Compound R935209] had a pIC50 of less than 5.00.
In turn, `CNC(=O)COc1cc(Nc2ncc(F)c(Nc3cccc(O)c3)n2)cc(OCC(=O)NC)c1` [Compound R926930] gave a pIC50 of 4.98.
Same read-out and setting: the result for `OB(O)c1cccc(Nc2ncc(F)c(Nc3cccc(B(O)O)c3)n2)c1` [Compound R926836] reads 4.84.
On the same count and under the same terms, under `Nc1ccc(Nc2ncc(F)c(Nc3ccc(N)cc3)n2)cc1` [Compound R950122] stands 4.86; under `OCCNc1cccc(Nc2ncc(F)c(Nc3cccc(NCCO)c3)n2)c1` [Compound R950181], 5.57.
For `CNC(=O)COc1cccc(Nc2nc(Nc3ccc(OCCN(C)C)cc3)ncc2F)c1` [Compound R909253], the pIC50 was 5.51. The pIC50 values of the last two compounds are within 0.2 log units of each other.
The compound `CCOC(=O)C(C)(C)Oc1cccc(Nc2ncc(F)c(Nc3cccc(O)c3)n2)c1` [Compound R926906] showed a pIC50 of less than 5.00.
Compound `O=C(COc1cccc(Nc2ncc(F)c(Nc3ccc4c(c3)OCCO4)n2)c1)NCC(O)CO` (stereo not drawn) [Compound R926782] showed a pIC50 of 5.91.
On the same count and under the same terms, under `CCOC(=O)C(C)(C)Oc1cccc(Nc2ncc(F)c(Nc3ccc4c(c3)OCCO4)n2)c1` [Compound R926907] stands 4.77; under `Cn1ncc2cc(Nc3ncc(F)c(Nc4ccc5c(cnn5C)c4)n3)ccc21` [Compound R935192], 5.27; under `Fc1cnc(Nc2ccc3cn[nH]c3c2)nc1Nc1ccc2cn[nH]c2c1` [Compound R935188], 5.74.
Still for that read-out and setting: under `CC(C)Oc1ccc(Nc2nc(Nc3ccc4c(cnn4CCCO)c3)ncc2F)cc1` [Compound R935307] stands 5.85; under `CNC(=O)COc1cccc(Nc2ncc(F)c(Nc3ccc(-n4cnc(Cl)c4Cl)cc3)n2)c1` [Compound R926812], 5.17; under `Cc1nc(COc2cccc(Nc3nc(Nc4cccc(O)c4)ncc3F)c2)no1` [Compound R945132], 4.69.
Same read-out and setting: the result for `Oc1cccc(Nc2nc(Nc3ccc(OCC4=NCCCN4)cc3)ncc2F)c1` [Compound R945169] reads 5.62.
`CCOC(=O)COc1cccc(Nc2ncc(F)c(Nc3ccc(O)c(C(=O)O)c3)n2)c1` [Compound R950290] gave a pIC50 of less than 5.00.
Still for that read-out and setting: the result for `COC(=O)COc1ccc(Nc2ncc(F)c(Nc3ccc(OCC(N)=O)cc3)n2)cc1` [Compound R945052] reads less than 5.00.
The same measure, in the same setting: the result for `O=C(NCCN1CCOCC1)c1cc2cc(Nc3ncc(F)c(Nc4ccc5oc(C(=O)NCCN6CCOCC6)cc5c4)n3)ccc2o1` [Compound R950173] reads 5.04.
On to `CCOC(=O)COc1ccc(Nc2nc(Nc3ccc(OCC(=O)OCC)cc3)c(NC(=O)Nc3ccccc3)c(C(=O)OCC)n2)cc1` [Compound R926571], for which the pIC50 was less than 5.00.
Same read-out and setting: the result for `CCOc1ccc(Nc2nc(Nc3ccc4c(c3)OCCO4)ncc2F)cc1` [Compound R920670] reads 4.84; that for `O=C(CNc1cccc(Nc2ncc(F)c(Nc3cccc(O)c3)n2)c1)N1CCNCC1` [Compound R950222], 5.70; that for `CNC(=O)C(C)(C)Oc1cccc(Nc2ncc(F)c(Nc3ccc4c(c3)OCCO4)n2)c1` [Compound R926915], less than 5.00.
Same read-out and setting: the result for `Cc1ccc(Nc2ncc(F)c(Nc3ccc(C)c(O)c3)n2)cc1O` [Compound R926341] reads 5.43; that for `COC(=O)Cn1ncc2cc(Nc3nc(Nc4ccc5c(c4)OCCO5)ncc3F)ccc21` [Compound R935249], 5.32; that for `CCOC(=O)c1cnc(Nc2ccc(OCC(=O)OC)cc2)nc1Nc1ccc(OCC(=O)OC)cc1` [Compound R926253], less than 5.00.
As for `Cc1cc(Nc2ncc(F)c(Nc3ccc4cn[nH]c4c3)n2)cc(Cl)c1O` [Compound R935264], the pIC50 was 5.85.
Same read-out and setting: under `CCOC(=O)COc1ccc(Nc2ncc(F)c(Nc3ccc(OCC(=O)OCC)c(Cl)c3)n2)cc1Cl` [Compound R926676] stands less than 5.00.
Still for that read-out and setting: under `CCOC(=O)COc1ccc(Nc2nc(Nc3ccc(OCC(=O)OCC)cc3)c([N+](=O)[O-])c(C(=O)OCC)n2)cc1` [Compound R926566] stands less than 5.00.
Same read-out and setting: the result for `CC(=O)Nc1cccc(N(C(C)=O)c2nc(N(C(C)=O)c3cccc(N(C(C)=O)C(C)=O)c3)ncc2F)c1` [Compound R950246] reads less than 5.00; that for `CNC(=O)Cn1ncc2ccc(Nc3ncc(F)c(Nc4ccc5c(c4)OCCO5)n3)cc21` [Compound R935212], 5.33.
The compound `CCOC(=O)COc1ccc(Nc2nc(Cl)c(Cl)c(Nc3ccc(OCC(=O)OCC)cc3)n2)cc1` [Compound R926569] showed a pIC50 of less than 5.00.
The compound `CCOC(=O)C(C)(Oc1cccc(Nc2nc(Nc3ccc(OC(C)C)cc3)ncc2F)c1)C(=O)OCC` [Compound R935187] showed a pIC50 of less than 5.00.
As to `Fc1cnc(Nc2cccc(OCCN3CCOCC3)c2)nc1Nc1ccc2c(c1)OCCO2` [Compound R926486], the pIC50 was 5.76.
Take `COC(=O)Cn1ncc2cc(Nc3ncc(F)c(Nc4ccc(OC(C)C)cc4)n3)ccc21` [Compound R935222]: the pIC50 is 5.45.
The same measure, in the same setting: under `CNCCNC(=O)CNc1cccc(Nc2ncc(F)c(Nc3ccc4c(c3)OCCO4)n2)c1` [Compound R950196] stands 5.68.
On the same count and under the same terms, the result for `O=C(c1cc2cc(Nc3ncc(F)c(Nc4ccc5c(c4)OCCO5)n3)ccc2o1)N1CCCNCC1` [Compound R926768] reads 6.01; that for `CNC(=O)COc1cccc(Nc2ncc(F)c(Nc3ccc(OC)c(C(=O)NC(C)C)c3)n2)c1` [Compound R940312], 4.79.
The compound `CNC(=O)c1cc(COc2cccc(Nc3ncc(F)c(Nc4ccc5c(c4)OCCO5)n3)c2)co1` [Compound R935213] gave a negative-log IC50 (pIC50) of 5.51. This pIC50 lies 0.72 log units higher than the previous one.
`CSc1nc(Nc2cccc(O)c2)nc(Nc2cccc(O)c2)c1Cl` [Compound R926595] gave a pIC50 of less than 5.00.
Compound `Cc1nc(COc2cccc(Nc3ncc(F)c(Nc4ccc5oc(C(N)=O)cc5c4)n3)c2)no1` [Compound R945135] had a pIC50 of 5.36.
`COC(=O)C(C)Oc1ccc(Nc2ccnc(Nc3ccc(OC(C)C(=O)OC)cc3)n2)cc1` (racemic) [Compound R926257]: the negative logarithm of the IC50 (pIC50) is less than 5.00.
The same measure, in the same setting: under `CNC(=O)C(C)(Oc1cccc(Nc2ncc(F)c(Nc3ccc(OC(C)C)cc3)n2)c1)C(=O)NC` [Compound R935196] stands 5.96; under `CNC(=O)COc1cccc(Nc2ncc(F)c(Nc3ccc4c(c3)C(=NO)CCO4)n2)c1` [Compound R950348], 6.65; under `O=C(O)COc1cccc(Nc2ncc(F)c(Nc3ccc4c(c3)OCCO4)n2)c1` [Compound R926483], less than 5.00.
As for `Cn1ncc2cc(Nc3ncc(F)c(Nc4cccc(O)c4)n3)ccc21` [Compound R935194], the pIC50 is 6.14.

The assay is the same for the next values; noted with them: Homo sapiens.
On to `O=[N+]([O-])c1ccc(F)c(Nc2ncc(F)c(Nc3cc([N+](=O)[O-])ccc3F)n2)c1` [Compound R950147], for which the pIC50 is 4.83.
On the same count and under the same terms, under `O=[N+]([O-])c1ccc(O)c(Nc2ccnc(Nc3cc([N+](=O)[O-])ccc3O)n2)c1` [Compound R950155] stands less than 5.00.

The assay is the same for the next values; noted with them: Homo sapiens, Jurkat.
For the compound `CC(=O)Nc1ccc(Nc2ncc(F)c(Nc3ccc(NC(C)=O)cc3)n2)cc1` [Compound R940222], the pIC50 is 5.02.
The same measure, in the same setting: the result for `Oc1cccc(Nc2nc(NCc3ccc4c(c3)CCO4)ncc2F)c1` [Compound R950213] reads less than 5.00; that for `Fc1cnc(Nc2ccccc2-c2ccccc2)nc1Nc1ccccc1-c1ccccc1` [Compound R926398], less than 5.00.
In the case of `Cc1c(O)ccc(Nc2ncc(F)c(Nc3ccc(O)c(C)c3C)n2)c1C` [Compound R940217], the pIC50 was less than 5.00.
The same measure, in the same setting: the result for `Cc1ccc(N)cc1Nc1ncc(F)c(Nc2cc(N)ccc2C)n1` [Compound R950157] reads less than 5.00; that for `OCCN(CCO)c1cccc(Nc2ncc(F)c(Nc3ccc4c(c3)OCCO4)n2)c1` [Compound R950209], 5.42.
`Fc1cnc(Nc2ccc(SC(F)(F)F)cc2)nc1Nc1ccc2c(c1)OCCO2` [Compound R926899] gave a pIC50 of less than 5.00.
Same read-out and setting: the result for `CC(C)(C)c1ccc(Nc2nc(Nc3ccc4oc(C(=O)O)cc4c3)ncc2F)cc1` [Compound R926481] reads less than 5.00; that for `Oc1ccc(Nc2ncc(F)c(Nc3ccc(O)c(C(F)(F)F)c3)n2)cc1C(F)(F)F` [Compound R950093], 4.95.
Still for that read-out and setting: the result for `COC(=O)c1cc2cc(Nc3ncc(F)c(Nc4ccc5oc(C(=O)OC)cc5c4)n3)ccc2o1` [Compound R926604] reads less than 5.00; that for `CCOc1ccc(Nc2ncc(C)c(Nc3ccc(OCC)cc3)n2)cc1` [Compound R926068], 4.94; that for `Oc1cccc(Nc2nc(Nc3ccc(-n4cnc(Cl)c4Cl)cc3)ncc2F)c1` [Compound R926777], less than 5.00.
The same measure, in the same setting: under `CCNC(=O)Nc1ccc(Nc2ncc(F)c(Nc3ccc(NC(=O)NCC)cc3)n2)cc1` [Compound R945040] stands less than 5.00; under `CCOC(=O)c1nc(Nc2ccc3c(c2)OCCO3)nc(Nc2ccc3c(c2)OCCO3)c1N` [Compound R925857], less than 5.00; under `COC(=O)C(CC(C)C)Nc1ncc(C#N)c(NC(CC(C)C)C(=O)OC)n1` (stereo not drawn) [Compound R925815], less than 5.00.
On to `CC(C)(C)c1ccc(Nc2ncc(F)c(Nc3ccc(C(C)(C)C)cc3)n2)cc1` [Compound R926222], for which the pIC50 was less than 5.00.
The same measure, in the same setting: under `CCOC(=O)c1nc(Nc2cccc(O)c2)nc(Nc2cccc(O)c2)c1[N+](=O)[O-]` [Compound R925849] stands 5.10.
On the same count and under the same terms, under `CC(C)(CO)c1ccc(Nc2ncc(F)c(Nc3cccc(O)c3)n2)cc1` [Compound R935153] stands 5.15.
Compound `Oc1cccc(Nc2ncc(-c3ccccc3)c(Nc3cccc(O)c3)n2)c1` [Compound R925783] showed a pIC50 of less than 5.00.
Still for that read-out and setting: under `OC(CNc1ncc(F)c(NCC(O)c2ccccc2)n1)c1ccccc1` (stereo not drawn) [Compound R925768] stands less than 5.00.
The same measure, in the same setting: the result for `CCOC(=O)c1cc2cc(Nc3ncc(F)c(Nc4ccc(C(C)(C)C)cc4)n3)ccc2[nH]1` [Compound R926474] reads 4.97.
The same measure, in the same setting: the result for `CC(C)(C)OC(=O)Nc1ccc(Nc2ncc(F)c(Nc3ccc(NC(=O)OC(C)(C)C)cc3)n2)cc1` [Compound R950120] reads 4.92.
